Assay results published in patent US20260028338A1, “HETEROBIFUNCTIONAL COMPOUNDS AND METHODS OF TREATING DISEASE” (Halda Therapeutics OpCo, Inc., priority 2023, published 2026).
pIC50, pKd: −log10 of the molar value.

What was measured:
Farage cell line = assay: Cellular growth inhibition assay, Farage cells (CellTiter-Glo); format: cell-based; settings: Farage cell line (DLBCL), 72 hours, CellTiter-Glo 2.0
Protocol: Exemplary compounds were tested for ability to inhibit the proliferation of Su-DHL-4 and Farage cells. Su-DHL-4 and Farage cells are commercially available diffuse large B cell lymphoma cell lines (DLBCL).
Su-DHL-4 and Farage cells were purchased from American Type Cell Culture (ATCC Cat #CRL-2957/CRL-2630) and then seeded on poly-D-lysine coated, black clear-bottom 384-well plates at 3000/well in 25 μL Roswell Park Memorial Institute media (RPMI-1640) supplemented with 10% w/w Fetal bovine serum (FBS) and 1% w/w Pen-Strep. Pen-Strep is a commercially available mixture of penicillin G and streptomycin, which is used in mammalian cell culture media to prevent bacterial contamination. Roswell Park Memorial Institute media (RPMI-1640) supplemented with 10% w/w fetal bovine serum (FBS), and 1% w/w Pen-Strep is herein referred to as Treatment Medium. Following seeding of cells in the plates, the plates were spun at 300×g for 30 seconds, then equilibrated to room temperature for 30 minutes, and then deposited in a humidified tissue culture incubator maintained at 37° C. with 5% CO2.
(§1) At 24 hours after seeding of the cells, dilutions of test compound were prepared in DMSO and dissolved in Treatment Medium, to achieve a final DMSO concentration of 0.5% w/w, thereby providing the Test Compound Solution. A 25 μL aliquot of the Test Compound Solution was added to cells in the well plates. An equal volume of a solution containing DMSO and Treatment Medium was used as a negative control. Following treatment of cells with Test Compound Solution or said equal volume of a solution containing DMSO and Treatment Medium, the plates were spun at 300×g for 30 seconds, and then left in an incubator for 72 hours.
(§2) At the end of the treatment duration, cell viability was quantified with CellTiter-Glo 2.0 reagent (Promega Cat #G9243). For this purpose, plates were equilibrated to room temperature for 30 minutes, and then 25 μL of CellTiter-Glo 2.0 reagent was added to cells in the plate wells. Plates were then agitated on a shaker for two minutes at 500 rpm and subsequently incubated at room temperature for 10 minutes. Following incubation, the plates were spun at 3000×g for 30 seconds, then sealed with an optical adhesive cover, and luminescence readings were measured with an EnVision Plate Reader (Perkin Elmer).
(§3) Data was normalized using zero luminescence for baseline. A four-parameter non-linear regression curve fit was applied to dose-response data in GraphPad Prism data analysis software to determine the half-maximal growth inhibitory concentration (GI50) for each test compound.

[1] = target: T1, biotinylated BCL6 (5-129) (Homo sapiens, UniProt P41182); assay: SPR assay for binding affinity to BCL6; settings: Biacore 8K, 25° C., immobilized biotinylated BCL6 (5-129)
T1 construct: biotinylated BCL6 (5-129) was diluted in 10 mM HEPES pH 7.4; biotin (biotinylated)
Protocol: Exemplary compounds were tested for ability to bind to B-cell lymphoma 6 (BCL6) protein.
Binding studies by surface plasmon resonance (SPR) were performed using a Biacore 8K (Cytiva) instrument at 25° C. Briefly, biotinylated BCL6 (5-129) was diluted in 10 mM HEPES pH 7.4, 150 mM NaCl, 0.05% Surfactant P20, 0.5 mM TCEP, 3% DMSO to 1-5 μg/mL and was immobilized on an SA sensor chip (Cytiva, BR100032), resulting in surface densities at 1000-3000 resonance units (RUs). Test compounds were serially diluted five times in the same buffer and were injected to the immobilized surface. Kinetic determination experiments were performed using single-cycle kinetics with 110-120 s contact time, 1000-4000 s dissociation time, 30 μL/min flow rate. Binding data were analyzed by using Biacore insight evaluation software to determine KD values for test compounds.

[2] = target: T2, His-tagged BRD4 BD1 (46-168) (Homo sapiens, UniProt O60885); assay: AlphaLISA competition assay, BRD4 BD1; format: binding; settings: BRD4-BD1, AlphaLISA competition with biotinylated histone H4K5/8/12/16(Ac) peptide, 10 nM
T2 construct: His-tagged BRD4 BD1 (46-168) and biotinylated histone H4K5/8/12/16(Ac) peptide
Protocol: (§4) Exemplary compounds were tested for ability to bind to bromodomain-containing protein 4 (BRD4).
(§5) Compounds were tested using a developed AlphaLISA competition assay. Briefly, His-tagged BRD4 BD1 (46-168) and biotinylated histone H4K5/8/12/16(Ac) peptide (ANASPEC, AS-64989-1) were incubated in 20 mM HEPES pH 7.5, 100 mM NaCl, 0.5 mM TCEP, 0.1% BSA, 0.02% CHAPS at a final concentration of 10 nM. Test compounds were serially diluted ten times in the same buffer and were added to the BRD4-peptide mixture for 1 h incubation at room temperature. Following incubation, Streptavidin AlphaLISA acceptor beads (PerkinElmer, AL125M) were added to BRD4-peptide-compound samples to a final concentration of 0.01 mg/mL for a 0.5 h incubation at room temperature in the dark. Following incubation, the same amount of Nickel Chelate Alpha donor beads (PerkinElmer, AS101M) were added to the samples for a final 1 h incubation. The AlphaLISA signals were measured using an EnVision plate reader (PerkinElmer). The data were uploaded to Screening Ultra (Dotmatics) to determine the half-maximal inhibitory concentration (IC50) for each test compound.

[3] = tested on: T-Rex 293 cell line SC cells having increased expression of BCL6 protein; assay: Cellular growth inhibition assay, T-Rex 293 SC cells with doxycycline (CellTiter-Glo); format: cell-based; settings: T-Rex 293 SC cells with 10 ng/mL doxycycline (increased BCL6 expression), 72 hours, CellTiter-Glo 2.0
Protocol: (§6) Exemplary compounds were tested for ability to inhibit the proliferation of the following types of cells: (i) a T-Rex 293 cell line having increased expression of BCL6 protein due to exposure of doxycycline and (ii) a T-Rex 293 cell line lacking increased expression of BCL6 protein.
(§7) The following types of cells were prepared for this experiment: (i) a T-Rex 293 cell line having increased expression of BCL6 protein due to exposure to doxycycline and (ii) a T-Rex 293 cell line lacking increased expression of BCL6 protein. Ability of the test compounds to inhibit proliferation of the foregoing cell types was evaluated according to the procedures set forth below.
(§8) The doxycycline-inducible BCL6 protein expressing cell line was established using the following protocol: T-Rex 293 cells were purchased from Invitrogen (Cat #R71007) and transfected using Lipofectamine 2000 with the wild-type BCL6 protein sequence cloned into the pcDNA4/TO vector. Transfected cells were selected using 400 μg/mL Zeocin (Invitrogen Cat #R25001). Following selection, single clones were raised and maintained in Dulbecco's Modified Eagle Medium (DMEM) supplemented with 10% w/w Tetracycline-free fetal bovine serum (FBS) and 250 μg/mL Zeocin. Clones were analyzed for expression of BCL6 protein in the presence and absence of 10 ng/mL doxycycline (Sigma Cat #D9891), and a single doxycycline-inducible clone (hereinafter “SC”) was selected for use in downstream assays.
(§9) The SC cells were seeded on poly-D-lysine coated, black clear-bottom 384-well plates at 2500/well, in 25 μL Dulbecco's Modified Eagle Medium (DMEM) supplemented with 10% w/w Tetracycline-free fetal bovine serum (FBS) and 1% w/w pen-strep, with or without 10 ng/mL doxycycline. Pen-Strep is a commercially available mixture of penicillin G and streptomycin, which is used in mammalian cell culture media to prevent bacterial contamination. Dulbecco's Modified Eagle Medium (DMEM) supplemented with 10% w/w Tetracycline-free fetal bovine serum (FBS) and 1% w/w pen-strep, with or without 10 ng/mL doxycycline is herein referred to as Treatment Medium. Following seeding of cells in the plates, the plates were spun at 300×g for 30 seconds, then equilibrated to room temperature for 30 minutes, and then deposited in a humidified tissue culture incubator maintained at 37° C. with 5% CO2.
as §1, §2, §3

[4] = tested on: T-Rex 293 cell line SC cells lacking increased expression of BCL6 protein; assay: Cellular growth inhibition assay, T-Rex 293 SC cells without doxycycline (CellTiter-Glo); format: cell-based; settings: T-Rex 293 SC cells not exposed to doxycycline (no increased BCL6 expression), 72 hours, CellTiter-Glo 2.0
Protocol: as §6, §7, §8, §9, §1, §2, §3

[5] = target: T3, His-tagged BRD4 BD2 (333-460) (Homo sapiens, UniProt O60885); assay: AlphaLISA competition assay, BRD4 BD2; format: binding; settings: BRD4-BD2, AlphaLISA competition with biotinylated histone H4K5/8/12/16(Ac) peptide, 20 nM
T3 construct: The same assay was developed for His-tagged BRD4 BD2 (333-460) and biotinylated histone H4K5/8/12/16(Ac) peptide
Protocol: as §4, §5
The same assay was developed for His-tagged BRD4 BD2 (333-460) and biotinylated histone H4K5/8/12/16(Ac) peptide at a final concentration of 20 nM.

SMILES	GI50 (Farage cell line) [nM]	pKd [1]	pIC50 [2]	GI50 [3] [nM]	GI50 [4] [nM]	pIC50 [5]
CNC(=O)COc1cc2cc(Nc3nc(N4CCCC5(CN(C[C@H]6C[C@H](Oc7ccc(C(C)(C)O)cc7-c7cn(C)c(=O)c8[nH]ccc78)C6)C5)C4)ncc3Cl)ccc2n(C)c1=O [Compound I-41]	1500 to 3000	8.00 to 9.00	> 8.30	< 500	> 3000	< 6.30
CNC(=O)COc1cc2cc(Nc3nc(N4CCC(CN5CCC6(CC5)CC(CC5CC(Oc7ccc(C(C)(C)O)cc7-c7cn(C)c(=O)c8[nH]ccc78)C5)C6)CC4)ncc3Cl)ccc2n(C)c1=O (centres unmarked) [Compound I-53]	< 500			< 500	< 500	
CNC(=O)COc1cc2cc(Nc3nc(N4CCC(CN5CCN(CC[C@H]6C[C@@H](Oc7ccc(C(C)(C)O)cc7-c7cn(C)c(=O)c8[nH]ccc78)C6)CC5)CC4)ncc3Cl)ccc2n(C)c1=O [Compound I-46]	< 500	8.00 to 9.00	> 8.30	< 500	< 500	> 8.30
CNC(=O)COc1cc2cc(Nc3nc(N4CCC(CN5CCN(Cc6cccc(Oc7ccc(C(C)(C)O)cc7-c7cn(C)c(=O)c8[nH]ccc78)c6)CC5)CC4)ncc3Cl)ccc2n(C)c1=O [Compound I-39]	< 500	7.00 to 8.00	7.30 to 8.30	< 500	< 500	> 8.30
CNC(=O)COc1cc2cc(Nc3nc(N4CCC(N5CCN(Cc6cccc(Oc7ccc(C(C)(C)O)cc7-c7cn(C)c(=O)c8[nH]ccc78)c6)CC5)CC4)ncc3Cl)ccc2n(C)c1=O [Compound I-40]	< 500	7.00 to 8.00	> 8.30	< 500	< 500	> 8.30
CNC(=O)COc1cc2cc(Nc3nc(N4CCC(CN5CCC6(CC5)CC(CC5CC(Oc7ccc(C(C)(C)O)cc7-c7cn(C)c(=O)c8[nH]ccc78)C5)C6)CC4)ncc3Cl)ccc2n(C)c1=O (centres unmarked) [Compound I-54]	< 500			< 500		
CNC(=O)COc1cc2cc(Nc3nc(N4CCC5(CC4)CC(Oc4ccc(C6=N[C@@H](C)c7nnc(C)n7-c7sc(C)c(C)c76)cc4)C5)ncc3Cl)ccc2n(C)c1=O [Compound I-28, 2-[[6-[[5-chloro-2-[2-[4-[(9S)-4,5,9,13-tetramethyl-3-thia-1,8,11,12-tetrazatricyclo[8.3.0.02,6]trideca-2 (6),4,7,10,12-pentaen-7-yl]phenoxy]-7-azaspiro[3.5]nonan-7-yl]pyrimidin-4-yl]amino]-1-methyl-2-oxo-3-quinolyl]oxy]-N-methyl-acetamide]	< 500			< 500	< 500	
CNC(=O)COc1cc2cc(Nc3nc(N4CCCC5(CN(C[C@H]6C[C@@H](Oc7ccc(C(C)(C)O)cc7-c7cn(C)c(=O)c8[nH]ccc78)C6)C5)C4)ncc3Cl)ccc2n(C)c1=O [Compound I-42]	1500 to 3000	> 9.00	> 8.30	< 500	> 3000	< 6.30
CNC(=O)COc1cc2cc(Nc3nc(N4CCC(CN5CCCC6(C5)CN(C[C@H]5C[C@@H](Oc7ccc(C(C)(C)O)cc7-c7cn(C)c(=O)c8[nH]ccc78)C5)C6)CC4)ncc3Cl)ccc2n(C)c1=O [Compound I-44]	< 500	8.00 to 9.00	> 8.30	< 500	500 to 1500	> 8.30
CNC(=O)COc1cc2cc(Nc3nc(N4CCC(N5CCN(Cc6ccc(Oc7ccc(C(C)(C)O)cc7-c7cn(C)c(=O)c8[nH]ccc78)cc6)CC5)CC4)ncc3Cl)ccc2n(C)c1=O [Compound I-48]	< 500	7.00 to 8.00	> 8.30	< 500	< 500	> 8.30
CNC(=O)COc1cc2cc(Nc3nc(N4CCN(CCN5CCN(Cc6cccc(Oc7ccc(C(C)(C)O)cc7-c7cn(C)c(=O)c8[nH]ccc78)c6)CC5)CC4)ncc3Cl)ccc2n(C)c1=O [Compound I-47]	< 500	8.00 to 9.00	> 8.30	< 500	< 500	> 8.30
CNC(=O)COc1cc2cc(Nc3nc(N4CCC(CN5CCN(Cc6ccc(Oc7ccc(C(C)(C)O)cc7-c7cn(C)c(=O)c8[nH]ccc78)cc6)CC5)CC4)ncc3Cl)ccc2n(C)c1=O [Compound I-38]	< 500	< 7.00	> 8.30	< 500	< 500	> 8.30
